Source: patent US12338203B2 (TAISHO PHARMACEUTICAL CO., LTD., priority 2019, dated 2025)

Target: T1, human LPAR1 (Homo sapiens, UniProt Q92633)
T1 construct: expressed in transfected cells
Experiment: Test Example 1: antagonism against response of LPA-induced increase in intracellular Ca2+ concentration in RH7777 cells stably expressing human LPAR1
Assay type: cell-based
Conditions: RH7777 cells stably expressing human LPAR1; Fluo-4 fluorescence, FDSS6000; read-out: IC50 value (concentration producing 50% antagonism against response of LPA-induced increase in intracellular Ca2+ concentration) (converted)
Summary of the method: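 Ca2+ flux read at 540 nm emission (480 nm excitation) after LPA addition to human LPAR1-expressing RH7777 cells exposed to compound for 30 min, 37 °C, pH 7.4 HEPES-buffered HBSS. Response relative to no-compound control after basal subtraction; IC50 fitted from concentration–response.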

T1 sequence (Q92633 whole entry): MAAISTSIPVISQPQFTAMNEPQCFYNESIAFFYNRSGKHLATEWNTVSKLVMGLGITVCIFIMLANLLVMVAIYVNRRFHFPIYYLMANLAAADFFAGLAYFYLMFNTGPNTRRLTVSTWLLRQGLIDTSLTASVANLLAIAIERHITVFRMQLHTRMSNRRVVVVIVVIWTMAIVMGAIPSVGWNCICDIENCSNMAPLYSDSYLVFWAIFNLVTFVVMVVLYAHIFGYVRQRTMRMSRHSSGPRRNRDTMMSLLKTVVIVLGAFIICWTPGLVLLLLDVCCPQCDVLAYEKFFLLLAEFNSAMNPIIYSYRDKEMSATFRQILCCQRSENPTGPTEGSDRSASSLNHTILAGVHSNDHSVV

Compound	IC50 [nM]
CCOc1cc([C@@H](C)N(CCCCc2ccccc2)C(=O)NC2(C(=O)O)CCOCC2)cc(OCC)c1C [Example 1-154]	11.3
CCOc1cc([C@@H](C)N(CCCCc2ccccc2)C(=O)NC2(C(=O)O)CCS(=O)(=O)CC2)cc(OCC)c1C [Example 1-157]	3.24
CCOc1cc([C@@H](C)N(CCCCc2ccccc2)C(=O)NC2CCC(C(=O)O)C2)cc(OCC)c1C(C)=O (stereo partly drawn) [Example 1-140]	65.9
CCOc1cc([C@@H](C)N(CCCCc2ccccc2)C(=O)NC2(C(=O)O)CC(O)C2)cc(OCC)c1C (stereo partly drawn) [Example 1-106]	8.72
CCOc1cc([C@@H](C)N(CCCCc2ccccc2)C(=O)NC2(C(=O)O)CC(F)(F)C2)cc(OCC)c1C(C)=O [Example 1-30, 1-({[(1R)-1-(4-Acetyl-3,5-Diethoxyphenyl)Ethyl](4-Phenylbutyl) Carbamoyl}Amino)-3,3-Difluorocyclobutane-1-Carboxylic Acid]	1.75
CCOc1c(C(C)=O)ccc([C@@H](C)N(CCCCc2ccccc2)C(=O)NC2(C(=O)O)CC(F)(F)C2)c1C [Example 1-75]	1.24
CCOc1c(C(C)O)ccc([C@@H](C)N(CCCCc2ccccc2)C(=O)NC2(C(=O)O)CC(F)(F)C2)c1C (stereo partly drawn) [Example 1-77, 1-{[{(1R)-1-[3-Ethoxy-4-(1-Hydroxyethyl)-2-Methylphenyl]Ethyl}(4-Phenylbutyl) Carbamoyl]Amino}-3,3-Difluorocyclobutane-1-Carboxylic Acid]	3.12
CCOc1cc([C@@H](C)N(CCCCc2ccccc2)C(=O)N(C)C2(C(=O)O)CC(F)(F)C2)cc(OCC)c1C [Example 2-1, 1-[{[(1R)-1-(3,5-Diethoxy-4-Methylphenyl)Ethyl](4-Phenylbutyl) Carbamoyl}(Methyl)Amino]-3,3-Difluorocyclobutane-1-Carboxylic Acid]	608
Trans-1-[([(1R)-1-(4-Acetyl-2,6-Dichloro-3,5-Diethoxyphenyl)Ethyl]{2-[(1S)-1-Phenylethoxy]Ethyl}Carbamoyl)Amino]-3-Ethoxycyclobutane-1-Carboxylic Acid [Example 5-120]	11.1
CCOc1cc(C(C)N(CCCCc2ccccc2)C(=O)NC(CCc2ccccc2)C(=O)O)cc(OCC)c1C (stereo not drawn) [Example 1-9]	129
CCOc1cc([C@@H](C)N(CCCCc2ccccc2)C(=O)NCC2(C(=O)O)CC2)cc(OCC)c1C(C)=O [Example 1-144]	28.7
CCOc1cc([C@@H](C)N(CCCCc2ccccc2)C(=O)NC2(C(=O)O)CC(OCC)C2)cc(OCC)c1C(C)O (stereo partly drawn) [Example 1-99]	2.58
C=Cc1c(OCC)cc(C(C)N(CCCCc2ccccc2)C(=O)NC2(C(=O)O)CC(F)(F)C2)cc1OCC (stereo not drawn) [Example 1-53]	3
CCOc1cc([C@@H](C)N(CCCCc2ccccc2)C(=O)NCC2(C(=O)O)CCOCC2)cc(OCC)c1C(C)=O [Example 1-165]	64.8

Second part, the compound after the results:

IC50 [nM]	Compound
2.54	CCOc1cc([C@@H](C)N(CCO[C@@H](C)c2ccccc2)C(=O)NC2(C(=O)O)CCC2)cc(OCC)c1C(C)=O [Example 4-114]
14	CCOc1cc([C@@H](C)N(CCC(F)(F)Cc2ccccc2)C(=O)NC2(C(=O)O)CC(OC)C2)c(C)c(OCC)c1C (stereo partly drawn) [Example 5-77]
1.46	COc1cc(C(C)N(CCOCc2ccccc2)C(=O)NC2(C(=O)O)CC(OC)C2)c(Cl)c(OC)c1C1CC1 (stereo not drawn) [Example 5-161]
4.16	CCOc1cc(C(C)N(CCOC(C)c2ccccc2)C(=O)NC2(C(=O)O)CC2)c(Cl)c(OCC)c1C(C)=O (stereo not drawn) [Example 5-187]
3.71	CCOc1c(C(C)=O)ccc([C@@H](C)N(CCO[C@H](C)c2ccccc2)C(=O)NC2(C(=O)O)CC(OCC)C2)c1C (stereo partly drawn) [Example 4-157]
0.961	COc1cc(C(C)N(CCOCc2ccccc2)C(=O)NC2(C(=O)O)CC(OC)C2)c(Cl)c(OC)c1C1CC1 (stereo not drawn) [Example 5-153]
2.51	CCOc1cc([C@@H](C)N(CCO[C@@H](C)c2ccccc2)C(=O)NC2(C(=O)O)CC(OC)C2)c(C)c(OCC)c1C(C)=O (stereo partly drawn) [Example 5-71]
1.21	CCOc1cc([C@@H](C)N(CCO[C@@H](C)c2ccccc2)C(=O)N[C@]2(C(=O)O)C[C@@H](OC)C2)c(C)c(OCC)c1C [Example 5-79]
8.18	COc1cc(C(C)N(CCO[C@@H](C)c2ccccc2)C(=O)NC2(C(=O)O)CCC2)cc(OC)c1C1CC1 (stereo partly drawn) [Example 5-137]
3.17	CCOc1cc(C(C)N(CCOCc2ccccc2)C(=O)NC2(c3nn[nH]n3)CC(F)(F)C2)cc(OCC)c1C1CC1 (stereo not drawn) [Example 10-13]
6.22	CCOc1c(C(C)=O)ccc([C@@H](C)N(CCO[C@H](C)c2ccccc2)C(=O)NC2(C(=O)O)CCOCC2)c1C [Example 4-159]
33.5	CCOc1cc(C(CO)N(CCCCc2ccccc2)C(=O)NC2(C(=O)O)Cc3ccccc3C2)cc(OCC)c1C (stereo not drawn) [Example 3-8]
1.95	CCOc1cc([C@@H](C)N(CCCCc2ccccc2)C(=O)NC2(C(=O)O)CC(F)(F)C2)c(Cl)c(OCC)c1C(C)O (single isomer, unassigned) [Example 5-52]
46.4	CCOc1cc([C@@H](C)N(CC(C)CCc2ccccc2)C(=O)NC2(C(=O)O)Cc3ccccc3C2)cc(OCC)c1C (stereo partly drawn) [Example 4-39]
0.47	CCOc1cc(C(C)N(CCOCc2ccccc2)C(=O)NC2(C(=O)O)CCC2)c(C)c(OCC)c1C1CC1 (stereo not drawn) [Example 5-192]
39.7	CC(c1ccc(C#N)cc1)N(CCCCc1ccccc1)C(=O)NC1(C(=O)O)CC(F)(F)C1 (stereo not drawn) [Example 5-5]
9.05	CCOc1cc([C@@H](C)N(CCO[C@@H](C)c2ccccc2)C(=O)N[C@]2(C(=O)O)C[C@H](OC)C2)c(Cl)c(OCC)c1C(C)O (single isomer, unassigned) [Example 5-60]
8.97	CCCOc1cc(OC)cc(C(C)N(CCCCc2ccccc2)C(=O)NC2(C(=O)O)CC(F)(F)C2)c1 (stereo not drawn) [Example 5-16]
2.63	CCOc1cc(C(C)N(CCOCc2ccccc2)C(=O)NC2(C(=O)O)CC2)c(C)c(OCC)c1C(C)=O (stereo not drawn) [Example 5-186]
5.9	CCOc1cc([C@@H](C)N(CCO[C@@H](C)c2ccccc2)C(=O)NC2(C(=O)O)CCOCC2)cc(OCC)c1C(C)=O [Example 4-142]
31	CCOc1cc([C@@H](C)N(CCC(F)(F)Cc2ccccc2)C(=O)NC2(C(=O)O)CCOCC2)c(Cl)c(OCC)c1C(C)O (stereo partly drawn) [Example 5-68, 4-{[{(1R)-1-[2-Chloro-3,5-Diethoxy-4-(1-Hydroxyethyl)Phenyl]Ethyl}(3,3-Difluoro-4-Phenylbutyl) Carbamoyl]Amino}Oxane-4-Carboxylic Acid]
1.02	COc1cc(C(C)N(CCOCc2ccccc2)C(=O)NC2(C(=O)O)CC(F)(F)C2)c(C)c(OC)c1C1CC1 (stereo not drawn) [Example 5-146]
16.1	CCOc1cc([C@@H](C)N(CCC(F)(F)Cc2ccccc2)C(=O)NC2(C(=O)O)CC(F)(F)C2)cc(OCC)c1C(C)O (single isomer, unassigned) [Example 4-85]
11	CCCOc1cc(OCCC)cc(C(C)N(CCCCc2ccccc2)C(=O)NC2(C(=O)O)CC(F)(F)C2)c1 (stereo not drawn) [Example 5-18]
8.87	CCOc1cc(C(C)N(CCCCc2ccccc2F)C(=O)NC2(C(=O)O)CC(F)(F)C2)cc(OCC)c1C (stereo not drawn) [Example 4-8]
2.68	CCOc1cc([C@@H](C)N(CCCC(F)(F)c2ccccc2)C(=O)NC2(C(=O)O)CCC2)cc(OCC)c1C(C)O (stereo partly drawn) [Example 4-52]
2.91	CCOc1cc([C@@H](C)N(CCO[C@@H](C)c2ccccc2)C(=O)N[C@]2(C(=O)O)C[C@@H](OCC)C2)cc(OCC)c1C1CC1 [Example 4-138, trans-1-[([(1R)-1-(4-cyclopropyl-3,5-diethoxyphenyl)ethyl]{2-[(1S)-1-phenylethoxy]ethyl}carbamoyl)amino]-3-ethoxycyclobutane-1-carboxylic acid]
30.6	CCOc1cc(C(C)N(CCCCCc2ccccc2)C(=O)NC2(C(=O)O)CC(F)(F)C2)cc(OCC)c1C (stereo not drawn) [Example 4-37]
